Several values for one entry are separate records, joined by “and”; a condition that tells them apart may be missing. Equal values may be shown once. Inconclusive results are not listed. Activity calls are given as the source filed them. How the calls were made is not given here.
Experiment: TB CFU imaging, starved microorganism, inhibitor dose response, confirmatory, dry powder (AID 743450)
Details: not given
With Cn1c(NC(=O)c2cccs2)nc2ccccc21 the AC90 was 4.16 µM and 1.65 µM. In the case of CN(C)c1cccc(C(=O)Nc2nc3ccccc3n2C)c1, the AC90 is reported as 5.34 µM. Molecule Cn1c(NC(=O)c2ccccc2)nc2ncccc21 has an AC90 of 2.23 µM. For Cn1c(NC(=O)c2ccccn2)nc2ccccc21, the AC90 was 5.17 µM. With O=C(Nc1nc2ccccc2n1CCN1CCCCC1)c1ccccc1 the AC90 was 12.3 µM. Cn1c(NC(=O)c2ccccc2)nc2ccc(F)cc21 gave an AC90 of 4.72 µM. For Cc1cccc(C(=O)Nc2nc3ccccc3n2C)c1, the AC90 was 8.9 µM. With Cn1c(NC(=O)c2cccc3ccccc23)nc2ccccc21 the AC90 was 2.81 µM. Cn1c(NC(=O)c2ccccc2NC(=O)c2ccccc2)nc2ccccc21 showed an AC90 of 5.02 µM. Work on Cn1c(NC(=O)c2ccc3ccccc3c2)nc2ccccc21 yielded an AC90 of 6.5 µM. For Cn1c(NC(=O)c2ccccc2)nc2cc(F)ccc21, the AC90 was 4.55 µM. With Cn1c(NC(=O)c2ccccc2)nc2c3cccnc3ccc21 the AC90 was 12 µM. Cn1c(NC(=O)c2cccc(OC(F)F)c2)nc2ccccc21 showed an AC90 of 22.3 µM. O=C(Nc1nc2ccccc2n1C1CC1)c1ccccc1 showed an AC90 of 4.84 µM. Molecule Cc1ccc(C(=O)Nc2nc3ccccc3n2C)cc1 has an AC90 of 4.71 µM. In the case of COc1ccc(C(=O)Nc2nc3ccccc3n2C)cc1OC, the AC90 is reported as 11.3 µM. Work on CCCCn1c(NC(=O)c2ccccc2)nc2ccccc21 yielded an AC90 of 7.88 µM. Cn1c(NC(=O)c2ccccc2C(F)(F)F)nc2ccccc21 gave an AC90 of 7.01 µM. Cn1c(NC(=O)Cc2ccccc2)nc2ccccc21 gave an AC90 of 3.85 µM. With COCCn1c(NC(=O)c2ccccc2)nc2ccccc21 the AC90 was 2.23 µM. For Cn1c(NC(=O)c2ccc(F)cc2)nc2ccccc21, the AC90 was 5.03 µM. COc1cccc2c1nc(NC(=O)c1ccccc1)n2C gave an AC90 of 3.66 µM. In the case of Cn1c(NC(=O)c2ccccc2)nc2c(F)cccc21, the AC90 is reported as 10.1 µM. COc1ccc(C(=O)Nc2nc3ccccc3n2C)cc1 gave an AC90 of 3.71 µM. O=C(Nc1nc2ccccc2[nH]1)c1ccccc1 gave an AC90 of 12.3 µM. In the case of Cn1c(NC(=O)c2ccccc2)nc2c(C#N)cccc21, the AC90 is reported as 5.26 µM. Cn1c(NC(=O)c2ccccc2F)nc2ccccc21 showed an AC90 of 4.84 µM. Work on Cn1c(NC(=O)c2ccccc2)nc2c3ncccc3ccc21 yielded an AC90 of 1.18 µM. Work on COc1ccc2c(c1)nc(NC(=O)c1ccccc1)n2C yielded an AC90 of 4.26 µM. In the case of CCn1c(NC(=O)c2ccccc2)nc2ccccc21, the AC90 is reported as 5.52 µM. With Cn1c(NC(=O)c2ccccc2)nc2cc(Cl)ccc21 the AC90 was 6.02 µM. Work on Cc1ccc2c(c1)nc(NC(=O)c1ccccc1)n2C yielded an AC90 of 13.6 µM. For Cn1c(NC(=O)c2ccc(OC(F)(F)F)cc2)nc2ccccc21, the AC90 was 6.61 µM. For Cn1c(NC(=O)c2ccccc2)nc2ccccc21, the AC90 was 4.27 µM and 4.2 µM. Work on CC(C)Oc1ccc(C(=O)Nc2nc3ccccc3n2C)cc1 yielded an AC90 of 6.98 µM. Cn1c(NC(=O)c2ccccc2)nc2cc(C(F)(F)F)ccc21 gave an AC90 of 6.01 µM. Molecule Cn1c(NC(=O)c2ccc(-c3ccccc3)cc2)nc2ccccc21 has an AC90 of 6.25 µM. Molecule CC(C)n1c(NC(=O)c2ccccc2)nc2ccccc21 has an AC90 of 6.68 µM. In the case of CCN(CC)CCn1c(NC(=O)c2ccccc2)nc2ccccc21, the AC90 is reported as 7.31 µM. With Cn1c(NC(=O)c2ccccc2)nc2ccc3ncccc3c21 the AC90 was 6.35 µM. With O=C(Nc1nc2ccccc2n1-c1ccccc1)c1ccccc1 the AC90 was > 26 µM (inactive). Molecule CCCn1c(NC(=O)c2ccccc2)nc2ccccc21 has an AC90 of 6.02 µM. Work on Cn1c(NC(=O)c2cccc(Cl)c2)nc2ccccc21 yielded an AC90 of 5.55 µM. For Cn1c(NC(=O)c2ccccc2)nc2cc(C#N)ccc21, the AC90 was 7.91 µM. With Cn1c(NC(=O)c2ccccc2)nc2c3nccnc3ccc21 the AC90 was 1.37 µM. Work on Cn1c(NC(=O)c2cccnc2)nc2ccccc21 yielded an AC90 of 5.75 µM. In the case of Cn1c(NC(=O)c2ccccc2)nc2c3ccncc3ccc21, the AC90 is reported as 6.92 µM. Work on Cn1c(NC(=O)c2ccccc2)nc2cccc(Cl)c21 yielded an AC90 of 10.2 µM. In the case of CN(C(=O)c1ccccc1)c1nc2ccccc2n1C, the AC90 is reported as > 26 µM (inactive). In the case of Cn1c(NC(=O)c2ccc(C(C)(C)C)cc2)nc2ccccc21, the AC90 is reported as 6.68 µM. Work on Cn1c(NC(=O)c2ccc(F)c(F)c2)nc2ccccc21 yielded an AC90 of 19.9 µM. In the case of O=C(Nc1nc2ccccc2n1Cc1ccccc1)c1ccccc1, the AC90 is reported as 6.74 µM. Cn1c(NC(=O)c2ccncc2)nc2ccccc21 showed an AC90 of 15 µM. For Cn1c(NC(=O)c2ccc(Cl)cc2)nc2ccccc21, the AC90 was 12.3 µM. For Cn1c(NC(=O)c2cccc(F)c2)nc2ccccc21, the AC90 was 7.51 µM. For COc1cccc(C(=O)Nc2nc3ccccc3n2C)c1, the AC90 was 6.18 µM. In the case of Cn1c(NC(=O)c2ccccc2Cl)nc2ccccc21, the AC90 is reported as 4.64 µM. Cc1cc(C(=O)Nc2nc3ccccc3n2C)c(C)o1 gave an AC90 of 9.93 µM. O=C(Nc1nc2ccccc2n1C1CCCCC1)c1ccccc1 showed an AC90 of 8.07 µM. With COc1ccccc1C(=O)Nc1nc2ccccc2n1C the AC90 was 5.86 µM.

Same assay, conditions: at 26 µM (top of the series)
With Cn1c(N)nc2ccccc21 the activity change, negative = inhibition was 3% (inactive). For Cn1c(NC(=O)c2cccc(C(F)(F)F)c2)nc2ccccc21, the activity change, negative = inhibition was -84% (inactive). In the case of Cn1c(NC(=O)c2ccccc2)nc2cccnc21, the activity change, negative = inhibition is reported as -100% (inactive). With CCn1c(NC(=O)c2cnn(Cc3ccccc3)c2)nc2ccccc21 the activity change, negative = inhibition was -74% (inactive). In the case of Cn1c(NC(=O)c2ccccc2)nc2ccc(C#N)cc21, the activity change, negative = inhibition is reported as -66% (inactive). In the case of O=C(Nc1nc2ccccc2n1CCN1CCOCC1)c1ccccc1, the activity change, negative = inhibition is reported as -51% (inactive).
